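Cells were grown in 96-well plates and exposed to each compound for 48 hours at five concentrations; endpoints were interpolated linearly between bracketing concentrations, or set to the highest concentration if not reached. GI50 marks 50% less growth.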 Activity calls are given as the source filed them. Rule as the data show it: active = GI50 up to about 1.1 µM and inactive = higher.
Columns and labels:
Assay in all cases: growth of human tumour cells (NCI), 48 h
[1] = test system: SK-MEL-5
[2] = test system: COLO 205
[3] = test system: DMS-114
[4] = test system: Malme-3M
[5] = test system: A549
[6] = test system: SNB-19
[7] = test system: UACC-257
[8] = test system: K562
[9] = test system: HCT-15
[10] = test system: SK-MEL-28
[11] = test system: SW-620
[12] = test system: A498
[13] = test system: 786-0
[14] = test system: ACHN
[15] = test system: U-251
[16] = test system: UO-31
[17] = test system: SK-MEL-2
[18] = test system: UACC-62
[19] = test system: NCI-H522
[20] = test system: SNB-75
[21] = test system: NCI-H23
[22] = test system: TK-10
[23] = test system: SNB-78
[24] = test system: MOLT-4
[25] = test system: SF-295
[26] = test system: HL-60
[27] = test system: HOP-62
[28] = test system: KM-20L2
[29] = test system: OVCAR-3
[30] = test system: M14
[31] = test system: NCI-H460
[32] = test system: RPMI-8226
[33] = test system: RXF 631
[34] = test system: SN12C
[35] = test system: HT-29
[36] = test system: M19-MEL
[37] = test system: LXFL 529
[38] = test system: XF498
[39] = test system: NCI-H226
[40] = test system: OVCAR-4
[41] = test system: OVCAR-8
[42] = test system: CCRF-CEM
[43] = test system: DLD-1
[44] = test system: LOX IMVI
[45] = test system: HCT-116
[46] = test system: HCC 2998
[47] = test system: HOP-92
[48] = test system: IGROV-1
[49] = test system: SF-268
[50] = test system: KM12
[51] = test system: CAKI-1
[52] = test system: EKVX
[53] = test system: RXF 393
[54] = test system: OVCAR-5
[55] = test system: SK-OV-3
[56] = test system: SR
[57] = test system: SF-539
[58] = test system: DMS-273

For `C=CCc1cc(-c2cc(CC=C)c(O)c(CNC)c2)cc(CNC)c1O`, the GI50 [1] was 16.1 µM (inactive), the GI50 [2] was 18.5 µM (inactive) and the GI50 [3] was 16.1 µM (inactive). For the same molecule, the GI50 [4] was 18.7 µM (inactive), the GI50 [5] was 17.8 µM (inactive) and the GI50 [6] was 13.3 µM (inactive). The GI50 [7] was 16 µM (inactive), the GI50 [8] was 10.4 µM (inactive) and the GI50 [9] was 16.6 µM. The GI50 [10] was 19.5 µM (inactive), the GI50 [11] was 17.3 µM (inactive) and the GI50 [12] was 20.3 µM (inactive). For the same molecule, the GI50 [13] was 15.5 µM (inactive), the GI50 [14] was 17.8 µM (inactive) and the GI50 [15] was 14.9 µM (inactive). The GI50 [16] was 12.9 µM (inactive), the GI50 [17] was 18.6 µM (inactive) and the GI50 [18] was 18.1 µM (inactive). For the same molecule, the GI50 [19] was 14.8 µM (inactive), the GI50 [20] was 11 µM (inactive) and the GI50 [21] was 15.8 µM (inactive). The GI50 [22] was 17.7 µM (inactive), the GI50 [23] was 19.5 µM (inactive) and the GI50 [24] was 10.9 µM (inactive). For the same molecule, the GI50 [25] was 16.9 µM (inactive), the GI50 [26] was 14.9 µM (inactive) and the GI50 [27] was 18.8 µM (inactive). The GI50 [28] was 16.6 µM (inactive), the GI50 [29] was 14.7 µM (inactive) and the GI50 [30] was 15.6 µM (inactive). The GI50 [31] was 16.3 µM (inactive), the GI50 [32] was 20.7 µM (inactive) and the GI50 [33] was 15.3 µM (inactive). For the same molecule, the GI50 [34] was 17.1 µM (inactive), the GI50 [35] was 15.3 µM (inactive) and the GI50 [36] was 14.2 µM (inactive). For the same molecule, the GI50 [37] was 15.2 µM (inactive), the GI50 [38] was 16.3 µM (inactive) and the GI50 [39] was 16.9 µM (inactive). The GI50 [40] was 16.5 µM (inactive), the GI50 [41] was 17.6 µM (inactive) and the GI50 [42] was 7.4 µM (inactive). For the same molecule, the GI50 [43] was 15.4 µM (inactive), the GI50 [44] was 13.3 µM (inactive) and the GI50 [45] was 14.7 µM (inactive). The GI50 [46] was 16.3 µM (inactive), the GI50 [47] was 11.1 µM (inactive) and the GI50 [48] was 18 µM (inactive). The GI50 [49] was 16.3 µM (inactive) and the GI50 [50] was 16.6 µM (inactive).
`N#CC(C#N)=C1SCC(=O)CS1` was tested, and the GI50 [1] was > 100 µM (inactive), the GI50 [2] was > 100 µM (inactive) and the GI50 [3] was > 100 µM (inactive). For the same molecule, the GI50 [4] was > 100 µM (inactive), the GI50 [5] was > 100 µM (inactive) and the GI50 [6] was > 100 µM (inactive). For the same molecule, the GI50 [7] was > 100 µM (inactive), the GI50 [8] was > 100 µM (inactive) and the GI50 [9] was greater than 100 µM. For the same molecule, the GI50 [51] was > 100 µM (inactive), the GI50 [11] was > 100 µM (inactive) and the GI50 [12] was > 100 µM (inactive). The GI50 [13] was > 100 µM (inactive), the GI50 [15] was > 100 µM (inactive) and the GI50 [16] was > 100 µM (inactive). The GI50 [18] was > 100 µM (inactive), the GI50 [19] was > 100 µM (inactive) and the GI50 [20] was 89.1 µM (inactive). The GI50 [21] was > 100 µM (inactive), the GI50 [52] was > 100 µM (inactive) and the GI50 [22] was > 100 µM (inactive). For the same molecule, the GI50 [23] was > 100 µM (inactive), the GI50 [24] was > 100 µM (inactive) and the GI50 [25] was > 100 µM (inactive). For the same molecule, the GI50 [26] was > 100 µM (inactive), the GI50 [27] was > 100 µM (inactive) and the GI50 [28] was > 100 µM (inactive). For the same molecule, the GI50 [53] was > 100 µM (inactive), the GI50 [29] was > 100 µM (inactive) and the GI50 [30] was > 100 µM (inactive). The GI50 [31] was > 100 µM (inactive), the GI50 [32] was > 100 µM (inactive) and the GI50 [33] was > 100 µM (inactive). For the same molecule, the GI50 [34] was > 100 µM (inactive), the GI50 [35] was > 100 µM (inactive) and the GI50 [54] was > 100 µM (inactive). The GI50 [36] was > 100 µM (inactive), the GI50 [37] was > 100 µM (inactive) and the GI50 [38] was > 100 µM (inactive). For the same molecule, the GI50 [39] was > 100 µM (inactive), the GI50 [55] was > 100 µM (inactive) and the GI50 [40] was > 100 µM (inactive). The GI50 [41] was > 100 µM (inactive), the GI50 [42] was > 100 µM (inactive) and the GI50 [56] was > 100 µM (inactive). The GI50 [43] was > 100 µM (inactive), the GI50 [44] was > 100 µM (inactive) and the GI50 [57] was > 100 µM (inactive). The GI50 [45] was > 100 µM (inactive), the GI50 [46] was > 100 µM (inactive) and the GI50 [47] was > 100 µM (inactive). For the same molecule, the GI50 [48] was > 100 µM (inactive), the GI50 [49] was > 100 µM (inactive) and the GI50 [58] was > 100 µM (inactive). For the same molecule, the GI50 [50] was > 100 µM (inactive).
For `Cc1cccc(N2C(=O)C(=O)C(c3nc4ccccc4s3)/C(=N/NC(=S)NN)C2=O)c1C` (configuration not stated), the GI50 [1] was > 100 µM (inactive), the GI50 [2] was > 100 µM (inactive) and the GI50 [3] was > 100 µM (inactive). For the same molecule, the GI50 [4] was > 100 µM (inactive), the GI50 [6] was > 100 µM (inactive) and the GI50 [7] was > 100 µM (inactive). The GI50 [8] was > 100 µM (inactive), the GI50 [9] was greater than 100 µM and the GI50 [51] was > 100 µM (inactive). For the same molecule, the GI50 [10] was > 100 µM (inactive), the GI50 [11] was > 100 µM (inactive) and the GI50 [12] was > 100 µM (inactive). The GI50 [13] was > 100 µM (inactive), the GI50 [14] was > 100 µM (inactive) and the GI50 [15] was > 100 µM (inactive). For the same molecule, the GI50 [16] was > 100 µM (inactive), the GI50 [17] was > 100 µM (inactive) and the GI50 [18] was > 100 µM (inactive). For the same molecule, the GI50 [19] was > 100 µM (inactive), the GI50 [20] was > 100 µM (inactive) and the GI50 [21] was > 100 µM (inactive). For the same molecule, the GI50 [52] was > 100 µM (inactive), the GI50 [22] was > 100 µM (inactive) and the GI50 [23] was > 100 µM (inactive). For the same molecule, the GI50 [24] was 90.6 µM (inactive), the GI50 [25] was > 100 µM (inactive) and the GI50 [27] was > 100 µM (inactive). For the same molecule, the GI50 [28] was > 100 µM (inactive), the GI50 [53] was > 100 µM (inactive) and the GI50 [29] was > 100 µM (inactive). The GI50 [30] was > 100 µM (inactive), the GI50 [31] was > 100 µM (inactive) and the GI50 [32] was > 100 µM (inactive). The GI50 [33] was > 100 µM (inactive), the GI50 [34] was > 100 µM (inactive) and the GI50 [54] was > 100 µM (inactive). For the same molecule, the GI50 [36] was > 100 µM (inactive), the GI50 [37] was > 100 µM (inactive) and the GI50 [38] was > 100 µM (inactive). For the same molecule, the GI50 [39] was > 100 µM (inactive), the GI50 [55] was > 100 µM (inactive) and the GI50 [40] was > 100 µM (inactive). The GI50 [41] was > 100 µM (inactive), the GI50 [44] was > 100 µM (inactive) and the GI50 [57] was > 100 µM (inactive). For the same molecule, the GI50 [45] was > 100 µM (inactive), the GI50 [46] was > 100 µM (inactive) and the GI50 [47] was > 100 µM (inactive). The GI50 [48] was > 100 µM (inactive), the GI50 [49] was > 100 µM (inactive) and the GI50 [58] was > 100 µM (inactive). For the same molecule, the GI50 [50] was > 100 µM (inactive).

Reference: ChEMBL document CHEMBL1201862, “PubChem BioAssay data set” (2004)
